The subject of data set [1] is glioma stem cell line U3013. Briefly: In vitro cancer cell and CSC viability assay (ATP quantification, CellTiterGlo). It counts as cell-based, human. The note with it: for pEC50: Homo sapiens, read-out: In vitro efficacy (viability) EC50; for potency with respect to S10 (viability): individual isomers of racemic S10. The procedure:
The ability of Examples S1-S23 to selectively induce cytotoxicity in glioma/glioblastoma cancer cells or glioma/glioblastoma cancer stem cells was determined by quantification of ATP production in glioma stem cell line U3013 in the presence of using CellTiterGlo reagent (Promega). Cells were exposed to compound in serial dilution in the range 1 nM to 50 µM for 24 hours and viability assessed with respect to negative control (dmso, no cell death) and positive control (staurosporine, full cell death). […] The EC50 of S10 remained largely similar at 2, 3 and 4 days of incubation. […] The individual isomers (S21-S23) of racemic S10 were evaluated in order to determine the enantiospecific pharmacology of the individual isomers.
Negative (100% DMSO) and positive (10 mM S10 in 100% DMSO) controls were placed in rows 1-4 and 5-8, respectively, of column 12. The wells were diluted with 190 μl of the corresponding growth media and 5 μl of each well of compound solution transferred to quadruplicate wells of a sterile 384-well black clear bottom plate (BD Falcon) containing GSC at 70% confluency in 45 μl growth media. The plate was incubated for 24 hours, after which the plate was removed from the incubator and each well imaged in bright-field using an Operetta Imaging system (PerkinElmer) at 37° C. and 5% CO2 to determine vacuole accumulation at each concentration. The plate was then allowed to cool to room temperature and each well treated with 25 μl freshly CellTiterGlo (Promega) reagent. The plate was shaken for 15 minutes and luminescence measured using a Victor3 (Perkin Elmer) microtiterplate reader. Total luminescence was normalized relative to control and curve fitting performed using GraphPad Prism (v6.02) software.

Data set [2] can be described thus: Pharmacokinetic evaluation of Vacquinol-1 stereoisomers, plasma and brain. Type of data set: in vivo, NMRI (SR/RS) or BALB/c (Vrac) mice. The note with it: for AUClast Plasma / Cmax Brain / tlast Brain / tlast Plasma / AUC(0-t): mice; for AUC(0-t): brain, read-out: AUClast Brain. How it is done: The pharmacokinetics of Vacquinol-1 (racemic), Vacquinol-1RS and Vacquinol-1SR, were determined in NMRI (SR/RS) or BALB/c (Vrac) mice following single intravenous (i.v.) or per oral (p.o) administration of 2 or 20 mg/kg Vacquinol-1, respectively. Blood and brain samples were taken from animals at the following nominal time points: 15, 30, and 60 minutes, and 2, 4, 6, 8, 24, 48, 72 and 144 hours after dosing (n=3/time-point). Bioanalytical quantification of Vacquinol-1 was analysed in plasma and brain samples by a UPLC-MS/MS.
Pharmacokinetics were calculated by non-compartmental analysis (NCA) from composite (mean) profiles. Nominal sampling times and dose levels have been used for the NCA calculations.

pEC50: −log10 of the molar value. Like-named read-outs stand apart in the source and are kept apart here.

The term pEC50 denotes the EC50 on a negative log10 scale, so that one unit is a factor of ten.

On to `O[C@H](c1cc(-c2ccc(C(F)(F)F)nc2)nc2ccccc12)[C@H]1CCCCN1` (mixture of isomers) [Compound S29, mixture of (R)-((R)-piperidin-2-yl)(2-(6-(trifluoromethyl)pyridin-3-yl)quinolin-4-yl)methanol and (S)-((S)-piperidin-2-yl)(2-(6-(trifluoromethyl)pyridin-3-yl)quinolin-4-yl)methanol], for which the “In vitro efficacy (viability) EC50” value in data set [1] (U3013, 24 hours exposure) is “No activity”.

Turning to `Cc1ccc(-c2cc([C@@H](O)[C@@H]3CCCCN3)c3ccccc3n2)cc1C#N` (racemic) [Compound S24, mixture of 5-(4-((R)-hydroxy((S)-piperidin-2-yl)methyl)quinolin-2-yl)-2-methylbenzonitrile and 5-(4-((S)-hydroxy((R)-piperidin-2-yl)methyl)quinolin-2-yl)-2-methylbenzonitrile], in data set [1] (U3013, 24 hours exposure), the pEC50 was 4.49. In the case of `CCCN(CCC)C(=O)c1ccc(-c2cc([C@@H](O)[C@@H]3CCCCN3)c3ccccc3n2)cc1` (racemic) [Compound S25, mixture of 4-(4-((R)-hydroxy((S)-piperidin-2-yl)methyl)quinolin-2-yl)-N,N-dipropylbenzamide and 4-(4-((S)-hydroxy((R)-piperidin-2-yl)methyl)quinolin-2-yl)-N,N-dipropylbenzamide], the pEC50 in data set [1] (U3013, 24 hours exposure) was 4.45. The same measure, in the same setting: for `O[C@H](c1cc(-c2ccc(C(F)(F)F)cc2)nc2ccccc12)[C@@H]1CCCCN1` (racemic) [Compound S26, mixture of (R)-((S)-piperidin-2-yl)(2-(4-(trifluoromethyl)phenyl)quinolin-4-yl)methanol and (S)-((R)-piperidin-2-yl)(2-(4-(trifluoromethyl)phenyl)quinolin-4-yl)methanol] the value was 4.87. The same measure, in the same setting: for `O[C@H](c1cc(-c2ccc(C(F)(F)F)nc2)nc2ccccc12)[C@@H]1CCCCN1` (racemic) [Compound S27, mixture of (R)-((S)-piperidin-2-yl)(2-(6-(trifluoromethyl)pyridin-3-yl)quinolin-4-yl)methanol and (S)-((R)-piperidin-2-yl)(2-(6-(trifluoromethyl)pyridin-3-yl)quinolin-4-yl)methanol] the value was 4.42; for `O[C@H](c1cc(-c2ccc(C(F)(F)F)cc2)nc2ccccc12)[C@H]1CCCCN1` (racemic) [Compound S28, mixture of (R)-((R)-piperidin-2-yl)(2-(4-(trifluoromethyl)phenyl)quinolin-4-yl)methanol and (S)-((S)-piperidin-2-yl)(2-(4-(trifluoromethyl)phenyl)quinolin-4-yl)methanol], 4.84; for `OC(c1cc(-c2ccccc2)nc2c1ccc1ccccc12)C1CCCCN1` (stereo not drawn) [Compound S1, (2-phenylbenzo[h]quinolin-4-yl)(piperidin-2-yl)methanol], 6.41. On to `OC(c1cc([C@]23CC4CC[C@H](C[C@H]4C2)C3)nc2c(Cl)cc(Cl)cc12)C1CCCCN1` (stereo partly drawn) [Compound S2, (6,8-dichloro-2-((2R,3aS,5R)-octahydro-1H-2,5-methanoinden-2-yl)quinolin-4-yl)(piperidin-2-yl)methanol], for which the pEC50 in data set [1] (U3013, 24 hours exposure) is 6.39. The same measure, in the same setting: as for `Cc1ccc2nc(Nc3ccc(Cl)cc3)cc(C(O)C3CCCCN3)c2c1` (stereo not drawn) [Compound S3, (2-((4-chlorophenyl)amino)-6-methylquinolin-4-yl)(piperidin-2-yl)methanol], the figure is 6.14; as for `OC(c1cc(-c2ccc(Cl)cc2)nc2c(Cl)cccc12)C1CCCCN1` (stereo not drawn) [Compound S4, (8-chloro-2-(4-chlorophenyl)quinolin-4-yl)(piperidin-2-yl)methanol], 5.99; as for `OC(c1cc(-c2ccccc2)nc2c(Cl)cc(Cl)cc12)C1CCCCN1` (stereo not drawn) [Compound S5, (6,8-dichloro-2-phenylquinolin-4-yl)(piperidin-2-yl)methanol], 5.96. On to `OC(c1cc(-c2cccc(Cl)c2)nc2ccccc12)C1CCCCN1` (stereo not drawn) [Compound S6, (2-(3-chlorophenyl)quinolin-4-yl)(piperidin-2-yl)methanol], for which, in data set [1] (U3013, 24 hours exposure), the negative-log EC50 (pEC50) is 5.90. For `OC(c1cc(-c2ccc(Cl)c(Cl)c2)nc2ccccc12)C1CCCCN1` (stereo not drawn) [Compound S7, (2-(3,4-dichlorophenyl)quinolin-4-yl)(piperidin-2-yl)methanol], the pEC50 in data set [1] (U3013, 24 hours exposure) is 5.80. On to `C#Cc1ccc(-c2cc(C(O)C3CCCCN3)c3ccccc3n2)cc1` (stereo not drawn) [Compound S8, (2-(4-ethynylphenyl)quinolin-4-yl)(piperidin-2-yl)methanol], for which the negative logarithm of the EC50 (pEC50) in data set [1] (U3013, 24 hours exposure) was 5.77. On the same count and under the same terms, for `CN(Cc1ccc(-c2cc(C(O)C3CCCCN3)c3ccccc3n2)cc1)C(=O)OC(C)(C)C` (stereo not drawn) [Compound S9, tert-butyl 4-(4-(hydroxy(piperidin-2-yl)methyl)quinolin-2-yl)benzyl(methyl)carbamate] the value was 5.65; for `OC(c1cc(-c2ccccc2)nc2cc(Cl)ccc12)C1CCCCN1` (stereo not drawn) [Compound S11, (7-chloro-2-phenylquinolin-4-yl)(piperidin-2-yl)methanol], 5.57. Consider `OC(c1cc(-c2ccc(Cl)cc2Cl)nc2ccccc12)C1CCCCN1` (stereo not drawn) [Compound S12, (2-(2,4-dichlorophenyl)quinolin-4-yl)(piperidin-2-yl)methanol], for which the pEC50 in data set [1] (U3013, 24 hours exposure) is 5.49. In the case of `OC(c1cc(-c2ccccc2)nc2ccc(Cl)cc12)C1CCCCN1` (stereo not drawn) [Compound S13, (6-chloro-2-phenylquinolin-4-yl)(piperidin-2-yl)methanol], in data set [1] (U3013, 24 hours exposure), the pEC50 was 5.44. The same measure, in the same setting: for `COC(c1cc(-c2ccc(Cl)cc2)nc2ccccc12)C1CCCCN1` (stereo not drawn) [Compound S14, 2-(4-chlorophenyl)-4-(methoxy(piperidin-2-yl)methyl)quinoline] the value was 5.25; for `COc1ccc(-c2cc(C(O)C3CCCCN3)c3ccccc3n2)cc1` (stereo not drawn) [Compound S15, (2-(4-methoxyphenyl)quinolin-4-yl)(piperidin-2-yl)methanol], 5.12; for `OC(c1cc(-c2ccc(Cl)cc2)nc2ccccc12)C1CCCN1` (stereo not drawn) [Compound S16, (2-(4-chlorophenyl)quinolin-4-yl)(pyrrolidin-2-yl)methanol], 5.06. With `OC(c1cc(C(F)(F)F)nc2c(Cl)cc(Cl)cc12)C1CCCCN1` (stereo not drawn) [Compound S17, (6,8-dichloro-2-(trifluoromethyl)quinolin-4-yl)(piperidin-2-yl)methanol], in data set [1] (U3013, 24 hours exposure), the pEC50 is 5.02. Same read-out and setting: as for `OC(c1cc(C2CCCCC2)nc2ccccc12)C1CCCCN1` (stereo not drawn) [Compound S18, (2-cyclohexylquinolin-4-yl)(piperidin-2-yl)methanol], the figure is 4.90; as for `CN1CCCCC1C(O)c1cc(-c2ccc(Cl)cc2)nc2ccccc12` (stereo not drawn) [Compound S19, (2-(4-chlorophenyl)quinolin-4-yl)(1-methylpiperidin-2-yl)methanol], 4.71. In the case of `O[C@H](c1cc(-c2ccc(Cl)cc2)nc2ccccc12)[C@@H]1CCCCN1` [Compound S20, (R)-(2-(4-chlorophenyl)quinolin-4-yl)((S)-piperidin-2-yl)methanol], the pEC50 in data set [1] (U3013, 24 hours exposure) was 5.76. Also, the “IC95 for cell death” value in data set [1] (glioblastoma cells (U3013)) stood at 8.9 µM. Moreover, in data set [1], the “potency with respect to S10 (viability)” value was “equal or increased potency”. In data set [2] (2 mg/kg i.v.), the “AUClast Plasma” value stood at 62 µg·h/mL, the “Cmax Brain” value amounted to 1970 ng/mL, the “tlast Brain” value stood at 144 h and the “tlast Plasma” value is 144 h. Moreover, in data set [2] (20 mg/kg p.o.), the “AUClast Plasma” value amounted to 246 µg·h/mL, the “Cmax Brain” value was 4840 ng/mL, the “tlast Brain” value amounted to 144 h and the “tlast Plasma” value came out at 144 h. In addition, in data set [2] (NMRI (single stereoisomers SR/RS), BALB/c (racemate), mouse, brain and plasma, 20 mg/kg, after oral dosing, read-out: Cmax exposures ratio (Cmax(brain)/Cmax(plasma))), the Kp came to 2.2. In addition, the AUC(0-t) in data set [2] (NMRI (single stereoisomers SR/RS), BALB/c (racemate), mouse, iv, 2 mg/kg i.v.) is 52.7 µg·h/mL. For the same compound, the AUC(0-t) in data set [2] (NMRI (single stereoisomers SR/RS), BALB/c (racemate), mouse, po, 20 mg/kg p.o.) is 400 µg·h/mL. For the compound `O[C@@H](c1cc(-c2ccc(Cl)cc2)nc2ccccc12)[C@@H]1CCCCN1` [Compound S22, (S)-(2-(4-chlorophenyl)quinolin-4-yl)((S)-piperidin-2-yl)methanol], the pEC50 in data set [1] (U3013, 24 hours exposure) is 4.98. The “potency with respect to S10 (viability)” value in data set [1] is listed as “significantly attenuated activity”. Take `O[C@H](c1cc(-c2ccc(Cl)cc2)nc2ccccc12)[C@H]1CCCCN1` [Compound S23, (R)-(2-(4-chlorophenyl)quinolin-4-yl)((R)-piperidin-2-yl)methanol]: the pEC50 in data set [1] (U3013, 24 hours exposure) was 5.00. For the same compound, the “potency with respect to S10 (viability)” value in data set [1] was “significantly attenuated activity”.

For the origin of these results see patent publication US20160214958A1, “COMPOUNDS AND USE FOR TREATING CANCER” (GLIONOVA AB, priority 2013, published 2016).
